Measurements published in US20240409566A1, “DELIVERY OF THERAPEUTIC ALKALOID COMPOUNDS” (priority 2022, published 2024).

What was measured:
[1] = Plasma stability assay, rat plasma; format: in vitro ADME
Procedure: (§1) Compound stability in rat and human plasma was measured by incubating compound with rat or human plasma at 37° C. in a microwell plate for sequential time points, monitoring pro-drug disappearance and metabolite appearance (mesembranol or 6-epi-mesembranol). A 2 mM stock solution of test compounds were prepared by dissolving appropriate amount of compounds in DMSO. The 2 mM stock was further diluted 200-folds in rat or human plasma to attain a final concentration of 10 μM respectively (0.5% DMSO). 50 μL aliquots of positive controls and test compounds spiked into rat or human plasma (n=2) were added to a pre-warmed plate (37° C.) and shaken at 50 rpm. At each respective time point, the reaction was stopped by adding 500 μL of acetonitrile containing internal standards (100 nM aprozolam, 200 nM caffeine, 100 nM tolbutamide). All samples were vortexed for 10 minutes, followed by centrifugation at 3,220 g for 30 minutes to precipitate proteins. 100 μL of the supernatant is transferred to a new plate. The supernatant will be diluted with ultrapure water according to the LC-MS signal response and peak shape. The concentrations of test compounds and positive control were quantified in the test samples using LC-MS/MS. Results reported as % of prodrug compound remaining at time point, and % of metabolite (mesembranol or 6-epi-mesembranol,) accumulated at time point.

[2] = Plasma stability assay, human plasma; format: in vitro ADME
Procedure: as §1

[3] = rat plasma, 37° C., 10 μM, 0 min, % prodrug remaining
[4] = rat plasma, 37° C., 10 μM, 10 min, % prodrug remaining
[5] = rat plasma, 37° C., 10 μM, 30 min, % prodrug remaining
[6] = rat plasma, 37° C., 10 μM, 60 min, % prodrug remaining
[7] = rat plasma, 37° C., 10 μM, 120 min, % prodrug remaining
[8] = rat plasma, 37° C., 10 μM, 240 min, % prodrug remaining
[9] = human plasma, 37° C., 10 μM, 0 min, % prodrug remaining
[10] = human plasma, 37° C., 10 μM, 10 min, % prodrug remaining
[11] = human plasma, 37° C., 10 μM, 30 min, % prodrug remaining
[12] = human plasma, 37° C., 10 μM, 60 min, % prodrug remaining
[13] = human plasma, 37° C., 10 μM, 120 min, % prodrug remaining
[14] = human plasma, 37° C., 10 μM, 240 min, % prodrug remaining

CCCCC(=O)OC1CC[C@@]2(c3ccc(OC)c(OC)c3)CCN(C)[C@H]2C1 (stereo in doubt) [Compound 205, (3aS,6S,7aS)-3a-(3,4-dimethoxyphenyl)-1-methyloctahydro-1H-indol-6-yl pentanoate]
Prodrug (%) ([1]; rat, 0 min, 10 µM): 100.0% | Prodrug (%) ([1]; rat, 10 min, 10 µM): 0.6% | Prodrug (%) ([1]; rat, 30 min, 10 µM): 0.1% | Prodrug (%) ([1]; rat, 60 min, 10 µM): 0.1% | Prodrug (%) ([1]; rat, 120 min, 10 µM): 0.1% | Prodrug (%) ([1]; rat, 240 min, 10 µM): 0.0% | Prodrug (%) ([2]; human, 0 min, 10 µM): 100.0% | Prodrug (%) ([2]; human, 10 min, 10 µM): 96.7% | Prodrug (%) ([2]; human, 30 min, 10 µM): 90.7% | Prodrug (%) ([2]; human, 60 min, 10 µM): 84.3% | Prodrug (%) ([2]; human, 120 min, 10 µM): 80.3% | Prodrug (%) ([2]; human, 240 min, 10 µM): 67.9%

CCCC(=O)OC1CC[C@@]2(c3ccc(OC)c(OC)c3)CCN(C)[C@H]2C1 (stereo in doubt) [Compound 206, (3aS,6S,7aS)-3a-(3,4-dimethoxyphenyl)-1-methyloctahydro-1H-indol-6-yl butyrate]
Prodrug (%) ([1]; rat, 0 min, 10 µM): 100.0% | Prodrug (%) ([1]; rat, 10 min, 10 µM): 0.8% | Prodrug (%) ([1]; rat, 30 min, 10 µM): 0.1% | Prodrug (%) ([1]; rat, 60 min, 10 µM): 0.0% | Prodrug (%) ([1]; rat, 120 min, 10 µM): 0.0% | Prodrug (%) ([1]; rat, 240 min, 10 µM): 0.0% | Prodrug (%) ([2]; human, 0 min, 10 µM): 100.0% | Prodrug (%) ([2]; human, 10 min, 10 µM): >99.0% | Prodrug (%) ([2]; human, 30 min, 10 µM): 92.7% | Prodrug (%) ([2]; human, 60 min, 10 µM): 83.8% | Prodrug (%) ([2]; human, 120 min, 10 µM): 79.1% | Prodrug (%) ([2]; human, 240 min, 10 µM): 68.0%

COc1ccc([C@@]23CC[C@H](OC(=O)N(C)C)C[C@@H]2N(C)CC3)cc1OC [Compound 101, (3aS,6S,7aS)-3a-(3,4-dimethoxyphenyl)-1-methyloctahydro-1H-indol-6-yl dimethylcarbamate]
Prodrug (%) ([1]; rat, 0 min, 10 µM): 100.0% | Prodrug (%) ([1]; rat, 10 min, 10 µM): 88.7% | Prodrug (%) ([1]; rat, 30 min, 10 µM): 95.0% | Prodrug (%) ([1]; rat, 60 min, 10 µM): 98.2% | Prodrug (%) ([1]; rat, 120 min, 10 µM): 99.4% | Prodrug (%) ([1]; rat, 240 min, 10 µM): 92.2% | Prodrug (%) ([2]; human, 0 min, 10 µM): 100.00% | Prodrug (%) ([2]; human, 10 min, 10 µM): >99.0% | Prodrug (%) ([2]; human, 30 min, 10 µM): >99.0% | Prodrug (%) ([2]; human, 60 min, 10 µM): >99.0% | Prodrug (%) ([2]; human, 120 min, 10 µM): >99.0% | Prodrug (%) ([2]; human, 240 min, 10 µM): >99.0%

COc1ccc([C@@]23CC[C@H](OC(=O)C(C)(C)C)C[C@@H]2N(C)CC3)cc1OC [Compound 102, (3aS,6S,7aS)-3a-(3,4-dimethoxyphenyl)-1-methyloctahydro-1H-indol-6-yl pivalate]
Prodrug (%) ([1]; rat, 0 min, 10 µM): 100.0% | Prodrug (%) ([1]; rat, 10 min, 10 µM): >99.0% | Prodrug (%) ([1]; rat, 30 min, 10 µM): 77.8% | Prodrug (%) ([1]; rat, 60 min, 10 µM): 68.1% | Prodrug (%) ([1]; rat, 120 min, 10 µM): 42.3% | Prodrug (%) ([1]; rat, 240 min, 10 µM): 15.4% | Prodrug (%) ([2]; human, 0 min, 10 µM): 100.00% | Prodrug (%) ([2]; human, 10 min, 10 µM): 97.52% | Prodrug (%) ([2]; human, 30 min, 10 µM): 95.20% | Prodrug (%) ([2]; human, 60 min, 10 µM): 92.88% | Prodrug (%) ([2]; human, 120 min, 10 µM): >99.0% | Prodrug (%) ([2]; human, 240 min, 10 µM): 94.80%

COc1ccc([C@@]23CC[C@H](OC(=O)C(C)C)C[C@@H]2N(C)CC3)cc1OC [Compound 103, (3aS,6S,7aS)-3a-(3,4-dimethoxyphenyl)-1-methyloctahydro-1H-indol-6-yl isobutyrate]
Prodrug (%) ([1]; rat, 0 min, 10 µM): 100.0% | Prodrug (%) ([1]; rat, 10 min, 10 µM): 56.1% | Prodrug (%) ([1]; rat, 30 min, 10 µM): 12.2% | Prodrug (%) ([1]; rat, 60 min, 10 µM): 0.6% | Prodrug (%) ([1]; rat, 120 min, 10 µM): 0.1% | Prodrug (%) ([1]; rat, 240 min, 10 µM): 0.0% | Prodrug (%) ([2]; human, 0 min, 10 µM): 100.00% | Prodrug (%) ([2]; human, 10 min, 10 µM): >99.0% | Prodrug (%) ([2]; human, 30 min, 10 µM): >99.0% | Prodrug (%) ([2]; human, 60 min, 10 µM): 97.28% | Prodrug (%) ([2]; human, 120 min, 10 µM): 97.48% | Prodrug (%) ([2]; human, 240 min, 10 µM): 87.17%

COc1ccc([C@@]23CC[C@H](OC(=O)c4ccccc4)C[C@@H]2N(C)CC3)cc1OC [Compound 104, (3aS,6S,7aS)-3a-(3,4-dimethoxyphenyl)-1-methyloctahydro-1H-indol-6-yl benzoate]
Prodrug (%) [1, 3]: 100.0% | Prodrug (%) [1, 4]: 62.0% | Prodrug (%) [1, 5]: 27.5% | Prodrug (%) [1, 6]: 7.5% | Prodrug (%) [1, 7]: 1.4% | Prodrug (%) [1, 8]: 0.6% | Prodrug (%) [2, 9]: 100.00% | Prodrug (%) [2, 10]: >99.0% | Prodrug (%) [2, 11]: 97.34% | Prodrug (%) [2, 12]: 97.40% | Prodrug (%) [2, 13]: 95.15% | Prodrug (%) [2, 14]: 90.28%

CCCCC(=O)O[C@H]1CC[C@@]2(c3ccc(OC)c(OC)c3)CCN(C)[C@H]2C1 [Compound 105, (3aS,6S,7aS)-3a-(3,4-dimethoxyphenyl)-1-methyloctahydro-1H-indol-6-yl pentanoate]
Prodrug (%) ([1]; rat, 0 min, 10 µM): 100.0% | Prodrug (%) ([1]; rat, 10 min, 10 µM): 10.8% | Prodrug (%) ([1]; rat, 30 min, 10 µM): 0.5% | Prodrug (%) ([1]; rat, 60 min, 10 µM): 0.1% | Prodrug (%) ([1]; rat, 120 min, 10 µM): 0.0% | Prodrug (%) ([1]; rat, 240 min, 10 µM): 0.0% | Prodrug (%) ([2]; human, 0 min, 10 µM): 100.00% | Prodrug (%) ([2]; human, 10 min, 10 µM): 96.40% | Prodrug (%) ([2]; human, 30 min, 10 µM): 89.85% | Prodrug (%) ([2]; human, 60 min, 10 µM): 81.61% | Prodrug (%) ([2]; human, 120 min, 10 µM): 72.68% | Prodrug (%) ([2]; human, 240 min, 10 µM): 50.16%

CCCC(=O)O[C@H]1CC[C@@]2(c3ccc(OC)c(OC)c3)CCN(C)[C@H]2C1 [Compound 106, (3aS,6S,7aS)-3a-(3,4-dimethoxyphenyl)-1-methyloctahydro-1H-indol-6-yl butyrate]
Prodrug (%) ([1]; rat, 0 min, 10 µM): 100.0% | Prodrug (%) ([1]; rat, 10 min, 10 µM): 39.9% | Prodrug (%) ([1]; rat, 30 min, 10 µM): 2.75% | Prodrug (%) ([1]; rat, 60 min, 10 µM): 0.7% | Prodrug (%) ([1]; rat, 120 min, 10 µM): 0.2% | Prodrug (%) ([1]; rat, 240 min, 10 µM): 0.1% | Prodrug (%) ([2]; human, 0 min, 10 µM): 100.00% | Prodrug (%) ([2]; human, 10 min, 10 µM): 93.04% | Prodrug (%) ([2]; human, 30 min, 10 µM): 87.33% | Prodrug (%) ([2]; human, 60 min, 10 µM): 79.39% | Prodrug (%) ([2]; human, 120 min, 10 µM): 67.04% | Prodrug (%) ([2]; human, 240 min, 10 µM): 50.22%

COc1ccc([C@@]23CC[C@@H](OC(=O)N(C)C)C[C@@H]2N(C)CC3)cc1OC [Compound 201, (3aS,6R,7aS)-3a-(3,4-dimethoxyphenyl)-1-methyloctahydro-1H-indol-6-yl dimethylcarbamate]
Prodrug (%) [1, 3]: 100.0% | Prodrug (%) [1, 4]: >99.0% | Prodrug (%) [1, 5]: >99.0% | Prodrug (%) [1, 6]: >99.0% | Prodrug (%) [1, 7]: >99.0% | Prodrug (%) [1, 8]: 97.6% | Prodrug (%) [2, 9]: 100.0% | Prodrug (%) [2, 10]: 96.3% | Prodrug (%) [2, 11]: 97.0% | Prodrug (%) [2, 12]: 94.8% | Prodrug (%) [2, 13]: 97.7% | Prodrug (%) [2, 14]: >99.0%

COc1ccc([C@@]23CC[C@@H](OC(=O)C(C)(C)C)C[C@@H]2N(C)CC3)cc1OC [Compound 202, (3aS,6R,7aS)-3a-(3,4-dimethoxyphenyl)-1-methyloctahydro-1H-indol-6-yl pivalate]
Prodrug (%) ([1]; rat, 0 min, 10 µM): 100.0% | Prodrug (%) ([1]; rat, 10 min, 10 µM): 80.6% | Prodrug (%) ([1]; rat, 30 min, 10 µM): 38.9% | Prodrug (%) ([1]; rat, 60 min, 10 µM): 9.6% | Prodrug (%) ([1]; rat, 120 min, 10 µM): 0.6% | Prodrug (%) ([1]; rat, 240 min, 10 µM): 0.0% | Prodrug (%) ([2]; human, 0 min, 10 µM): 100.0% | Prodrug (%) ([2]; human, 10 min, 10 µM): >99.0% | Prodrug (%) ([2]; human, 30 min, 10 µM): >99.0% | Prodrug (%) ([2]; human, 60 min, 10 µM): 96.3% | Prodrug (%) ([2]; human, 120 min, 10 µM): 94.7% | Prodrug (%) ([2]; human, 240 min, 10 µM): 88.1%

COc1ccc([C@@]23CC[C@@H](OC(=O)C(C)C)C[C@@H]2N(C)CC3)cc1OC [Compound 203, (3aS,6R,7aS)-3a-(3,4-dimethoxyphenyl)-1-methyloctahydro-1H-indol-6-yl isobutyrate]
Prodrug (%) ([1]; rat, 0 min, 10 µM): 100.0% | Prodrug (%) ([1]; rat, 10 min, 10 µM): 0.1% | Prodrug (%) ([1]; rat, 30 min, 10 µM): 0.1% | Prodrug (%) ([1]; rat, 60 min, 10 µM): 0.0% | Prodrug (%) ([1]; rat, 120 min, 10 µM): 0.0% | Prodrug (%) ([1]; rat, 240 min, 10 µM): 0.0% | Prodrug (%) ([2]; human, 0 min, 10 µM): 100.0% | Prodrug (%) ([2]; human, 10 min, 10 µM): 0.1% | Prodrug (%) ([2]; human, 30 min, 10 µM): 0.1% | Prodrug (%) ([2]; human, 60 min, 10 µM): 0.1% | Prodrug (%) ([2]; human, 120 min, 10 µM): 0.1% | Prodrug (%) ([2]; human, 240 min, 10 µM): 0.1%
